# What was measured:
# Assay type in all cases: cell-based
# [1] = target: T1, IAP/Androgen receptor (Homo sapiens) (UniProt P10275+P98170+Q13490); assay: SNIPER activity at IAP/AR in human MCF7 cells assessed as induction of AR protein degradation incubated for 8 to 24 hrs by western blot analysis; details: time hrs 8-24
# [2] = target: T2, IAP-Estrogen receptor (Homo sapiens) (UniProt P03372+P98170+Q13490); assay: SNIPER activity at IAP/ERalpha in human MCF7 cells assessed as induction of ERalpha protein degradation incubated for 8 to 24 hrs by western blot analysis; details: time hrs 8-24
# [3] = target: T1, IAP/Androgen receptor (Homo sapiens); assay: SNIPER activity at IAP/AR in human MCF7 cells assessed as induction of AR protein degradation by measuring AR protein level at 5 uM incubated for 8 hrs by western blot analysis relative to lamin B
# [4] = target: T1, IAP/Androgen receptor (Homo sapiens); assay: SNIPER activity at IAP/AR in human MCF7 cells assessed as induction of AR protein degradation by measuring AR protein level at 10 uM incubated for 8 hrs by western blot analysis relative to lamin B
# [5] = target: T1, IAP/Androgen receptor (Homo sapiens); assay: SNIPER activity at IAP/AR in human MCF7 cells assessed as induction of AR protein degradation by measuring AR protein level at 20 uM incubated for 8 hrs by western blot analysis relative to lamin B
# [6] = target: T2, IAP-Estrogen receptor (Homo sapiens); assay: SNIPER activity at IAP/ERalpha in human MCF7 cells assessed as induction of ERalpha protein degradation by measuring ERalpha protein level at 5 uM incubated for 8 hrs by western blot analysis relative to lamin B
# [7] = target: T2, IAP-Estrogen receptor (Homo sapiens); assay: SNIPER activity at IAP/ERalpha in human MCF7 cells assessed as induction of ERalpha protein degradation by measuring ERalpha protein level at 10 uM incubated for 8 hrs by western blot analysis relative to lamin B
# [8] = target: T2, IAP-Estrogen receptor (Homo sapiens); assay: SNIPER activity at IAP/ERalpha in human MCF7 cells assessed as induction of ERalpha protein degradation by measuring ERalpha protein level at 20 uM incubated for 8 hrs by western blot analysis relative to lamin B
# [9] = target: T1, IAP/Androgen receptor (Homo sapiens); assay: SNIPER activity at IAP/AR in human MCF7 cells assessed as induction of AR protein degradation by measuring AR protein level at 20 uM incubated for 24 hrs by western blot analysis relative to lamin B
# [10] = target: T1, IAP/Androgen receptor (Homo sapiens); assay: SNIPER activity at IAP/AR in human MCF7 cells assessed as induction of AR protein degradation by measuring AR protein level at 10 uM incubated for 24 hrs by western blot analysis relative to lamin B
# [11] = target: T1, IAP/Androgen receptor (Homo sapiens); assay: SNIPER activity at IAP/AR in human MCF7 cells assessed as induction of AR protein degradation by measuring AR protein level at 5 uM incubated for 24 hrs by western blot analysis relative to lamin B
# [12] = target: T2, IAP-Estrogen receptor (Homo sapiens); assay: SNIPER activity at IAP/ERalpha in human MCF7 cells assessed as induction of ERalpha protein degradation by measuring ERalpha protein level at 5 uM incubated for 24 hrs by western blot analysis relative to lamin B
# [13] = target: T2, IAP-Estrogen receptor (Homo sapiens); assay: SNIPER activity at IAP/ERalpha in human MCF7 cells assessed as induction of ERalpha protein degradation by measuring ERalpha protein level at 10 uM incubated for 24 hrs by western blot analysis relative to lamin B
# [14] = target: T2, IAP-Estrogen receptor (Homo sapiens); assay: SNIPER activity at IAP/ERalpha in human MCF7 cells assessed as induction of ERalpha protein degradation by measuring ERalpha protein level at 20 uM incubated for 24 hrs by western blot analysis relative to lamin B
# [15] = target: T3, Baculoviral IAP repeat-containing protein 2/E3 ubiquitin-protein ligase XIAP/Aryl hydrocarbon receptor (Homo sapiens, UniProt P35869+P98170+Q13490); assay: SNIPER activity at IAP/AhR in human MCF7 cells assessed as induction of AhR protein degradation by measuring AhR protein level at 5 uM incubated for 8 hrs by western blot analysis relative to lamin B; details: mcf7, 8 h
# [16] = target: T3, Baculoviral IAP repeat-containing protein 2/E3 ubiquitin-protein ligase XIAP/Aryl hydrocarbon receptor; assay: SNIPER activity at IAP/AhR in human MCF7 cells assessed as induction of AhR protein degradation by measuring AhR protein level at 10 uM incubated for 8 hrs by western blot analysis relative to lamin B; details: mcf7, 8 h
# [17] = target: T3, Baculoviral IAP repeat-containing protein 2/E3 ubiquitin-protein ligase XIAP/Aryl hydrocarbon receptor; assay: SNIPER activity at IAP/AhR in human MCF7 cells assessed as induction of AhR protein degradation by measuring AhR protein level at 20 uM incubated for 8 hrs by western blot analysis relative to lamin B; details: mcf7, 8 h
# [18] = target: T3, Baculoviral IAP repeat-containing protein 2/E3 ubiquitin-protein ligase XIAP/Aryl hydrocarbon receptor; assay: SNIPER activity at IAP/AhR in human MCF7 cells assessed as induction of AhR protein degradation by measuring AhR protein level at 5 uM incubated for 24 hrs by western blot analysis relative to lamin B; details: mcf7, 24 h
# [19] = target: T3, Baculoviral IAP repeat-containing protein 2/E3 ubiquitin-protein ligase XIAP/Aryl hydrocarbon receptor; assay: SNIPER activity at IAP/AhR in human MCF7 cells assessed as induction of AhR protein degradation by measuring AhR protein level at 10 uM incubated for 24 hrs by western blot analysis relative to lamin B; details: mcf7, 24 h
# [20] = target: T3, Baculoviral IAP repeat-containing protein 2/E3 ubiquitin-protein ligase XIAP/Aryl hydrocarbon receptor; assay: SNIPER activity at IAP/AhR in human MCF7 cells assessed as induction of AhR protein degradation by measuring AhR protein level at 20 uM incubated for 24 hrs by western blot analysis relative to lamin B; details: mcf7, 24 h
# [21] = target: T1, IAP/Androgen receptor (Homo sapiens); assay: SNIPER activity at IAP/AR in human MCF7 cells assessed as induction of AR protein degradation by measuring AR protein level at 20 uM incubated for 8 hrs in presence of proteasome inhibitor, MG132 by western blot analysis relative to lamin B
# [22] = target: T1, IAP/Androgen receptor (Homo sapiens); assay: SNIPER activity at IAP/AR in human MCF7 cells assessed as induction of AR protein degradation by measuring AR protein level at 20 uM incubated for 8 hrs in presence of ubiquitin activating inhibitor MLN7243 by western blot analysis relative to lamin B
# [23] = target: T2, IAP-Estrogen receptor (Homo sapiens); assay: SNIPER activity at IAP/ERalpha in human MCF7 cells assessed as induction of ERalpha protein degradation by measuring ERalpha protein level at 20 uM incubated for 8 hrs in presence of proteasome inhibitor, MG132 by western blot analysis relative to lamin B
# [24] = target: T2, IAP-Estrogen receptor (Homo sapiens); assay: SNIPER activity at IAP/ERalpha in human MCF7 cells assessed as induction of ERalpha protein degradation by measuring ERalpha protein level at 20 uM incubated for 8 hrs in presence of ubiquitin activating inhibitor MLN7243 by western blot analysis relative to lamin B
# [25] = target: T3, Baculoviral IAP repeat-containing protein 2/E3 ubiquitin-protein ligase XIAP/Aryl hydrocarbon receptor; assay: SNIPER activity at IAP/AhR in human MCF7 cells assessed as induction of AhR protein degradation by measuring AhR protein level at 20 uM incubated for 8 hrs in presence of proteasome inhibitor, MG132 by western blot analysis relative to lamin B; details: mcf7, 8 h
# [26] = target: T3, Baculoviral IAP repeat-containing protein 2/E3 ubiquitin-protein ligase XIAP/Aryl hydrocarbon receptor; assay: SNIPER activity at IAP/AhR in human MCF7 cells assessed as induction of AhR protein degradation by measuring AhR protein level at 20 uM incubated for 8 hrs in presence of ubiquitin activating inhibitor MLN7243 by western blot analysis relative to lamin B; details: mcf7, 8 h
# [27] = target: T1, IAP/Androgen receptor (Homo sapiens); assay: SNIPER activity at IAP/AR in cIAP1 siRNA-transfected human MCF7 cells assessed as induction of AR protein degradation by measuring AR protein level at 20 uM incubated for 8 hrs by western blot analysis relative to lamin B
# [28] = target: T1, IAP/Androgen receptor (Homo sapiens); assay: SNIPER activity at IAP/AR in XIAP siRNA-transfected human MCF7 cells assessed as induction of AR protein degradation by measuring AR protein level at 20 uM incubated for 8 hrs by western blot analysis relative to lamin B
# [29] = target: T1, IAP/Androgen receptor (Homo sapiens); assay: SNIPER activity at IAP/AR in XIAP/cIAP1 siRNA-transfected human MCF7 cells assessed as induction of AR protein degradation by measuring AR protein level at 20 uM incubated for 8 hrs by western blot analysis relative to lamin B
# [30] = target: T2, IAP-Estrogen receptor (Homo sapiens); assay: SNIPER activity at IAP/ERalpha in cIAP1 siRNA-transfected human MCF7 cells assessed as induction of ERalpha protein degradation by measuring ERalpha protein level at 20 uM incubated for 8 hrs by western blot analysis relative to lamin B
# [31] = target: T2, IAP-Estrogen receptor (Homo sapiens); assay: SNIPER activity at IAP/ERalpha in XIAP siRNA-transfected human MCF7 cells assessed as induction of ERalpha protein degradation by measuring ERalpha protein level at 20 uM incubated for 8 hrs by western blot analysis relative to lamin B
# [32] = target: T2, IAP-Estrogen receptor (Homo sapiens); assay: SNIPER activity at IAP/ERalpha in XIAP/cIAP1 siRNA-transfected human MCF7 cells assessed as induction of ERalpha protein degradation by measuring ERalpha protein level at 20 uM incubated for 8 hrs by western blot analysis relative to lamin B
# T3 sequence (P35869 whole entry): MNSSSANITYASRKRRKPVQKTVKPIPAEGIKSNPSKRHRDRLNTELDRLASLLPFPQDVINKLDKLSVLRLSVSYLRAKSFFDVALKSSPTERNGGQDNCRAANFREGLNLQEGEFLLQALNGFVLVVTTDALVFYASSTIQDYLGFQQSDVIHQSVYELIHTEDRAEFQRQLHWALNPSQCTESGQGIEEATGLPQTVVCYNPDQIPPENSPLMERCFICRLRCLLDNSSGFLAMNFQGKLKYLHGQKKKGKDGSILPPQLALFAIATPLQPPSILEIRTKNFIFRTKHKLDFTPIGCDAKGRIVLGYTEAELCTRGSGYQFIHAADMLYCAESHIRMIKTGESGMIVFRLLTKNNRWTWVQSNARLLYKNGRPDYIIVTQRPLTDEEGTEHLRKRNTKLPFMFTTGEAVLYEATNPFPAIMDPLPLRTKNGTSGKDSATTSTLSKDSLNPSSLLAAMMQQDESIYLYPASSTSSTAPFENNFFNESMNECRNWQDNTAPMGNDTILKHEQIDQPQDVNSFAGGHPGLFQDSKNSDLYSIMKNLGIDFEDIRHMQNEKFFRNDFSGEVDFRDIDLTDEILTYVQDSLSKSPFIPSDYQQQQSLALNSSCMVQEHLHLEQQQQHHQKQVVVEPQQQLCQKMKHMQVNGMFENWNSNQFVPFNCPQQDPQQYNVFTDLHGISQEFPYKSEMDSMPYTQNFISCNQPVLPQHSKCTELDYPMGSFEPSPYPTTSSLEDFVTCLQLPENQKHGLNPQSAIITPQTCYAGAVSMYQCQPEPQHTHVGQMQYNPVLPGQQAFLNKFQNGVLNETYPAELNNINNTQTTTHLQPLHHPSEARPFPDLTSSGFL
# T3 sequence (P98170 whole entry): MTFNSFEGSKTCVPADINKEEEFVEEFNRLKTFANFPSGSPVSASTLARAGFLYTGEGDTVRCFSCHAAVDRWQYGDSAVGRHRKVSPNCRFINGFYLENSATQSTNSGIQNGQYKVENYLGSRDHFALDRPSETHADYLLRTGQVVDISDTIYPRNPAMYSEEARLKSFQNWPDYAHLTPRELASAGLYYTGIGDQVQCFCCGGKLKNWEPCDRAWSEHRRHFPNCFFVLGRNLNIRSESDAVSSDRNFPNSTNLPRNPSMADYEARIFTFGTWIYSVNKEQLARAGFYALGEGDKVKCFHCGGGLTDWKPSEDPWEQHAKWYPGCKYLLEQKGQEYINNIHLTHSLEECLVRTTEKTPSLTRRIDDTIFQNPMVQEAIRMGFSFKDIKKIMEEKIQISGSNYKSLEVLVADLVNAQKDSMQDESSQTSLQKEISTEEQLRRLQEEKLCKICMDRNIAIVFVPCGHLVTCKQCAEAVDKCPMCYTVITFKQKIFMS
# T3 sequence (Q13490 whole entry): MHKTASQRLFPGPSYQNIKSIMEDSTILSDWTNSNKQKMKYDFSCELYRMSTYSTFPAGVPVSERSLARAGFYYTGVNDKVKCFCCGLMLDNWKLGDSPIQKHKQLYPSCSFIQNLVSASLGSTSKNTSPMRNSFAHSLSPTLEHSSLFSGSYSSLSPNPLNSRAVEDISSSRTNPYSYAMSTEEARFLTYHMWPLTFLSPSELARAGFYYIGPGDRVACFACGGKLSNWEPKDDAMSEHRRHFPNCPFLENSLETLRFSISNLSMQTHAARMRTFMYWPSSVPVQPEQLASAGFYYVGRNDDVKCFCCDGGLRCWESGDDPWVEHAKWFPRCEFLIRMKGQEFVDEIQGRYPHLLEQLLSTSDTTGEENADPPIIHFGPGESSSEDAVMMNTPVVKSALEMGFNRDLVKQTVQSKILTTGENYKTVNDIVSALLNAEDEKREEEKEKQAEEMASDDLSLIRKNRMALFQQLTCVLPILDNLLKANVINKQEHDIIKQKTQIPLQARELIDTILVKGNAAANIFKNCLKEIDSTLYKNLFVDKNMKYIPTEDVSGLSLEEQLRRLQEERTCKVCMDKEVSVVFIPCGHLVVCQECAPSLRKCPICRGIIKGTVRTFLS
# T2 sequence (P03372 whole entry, looked up): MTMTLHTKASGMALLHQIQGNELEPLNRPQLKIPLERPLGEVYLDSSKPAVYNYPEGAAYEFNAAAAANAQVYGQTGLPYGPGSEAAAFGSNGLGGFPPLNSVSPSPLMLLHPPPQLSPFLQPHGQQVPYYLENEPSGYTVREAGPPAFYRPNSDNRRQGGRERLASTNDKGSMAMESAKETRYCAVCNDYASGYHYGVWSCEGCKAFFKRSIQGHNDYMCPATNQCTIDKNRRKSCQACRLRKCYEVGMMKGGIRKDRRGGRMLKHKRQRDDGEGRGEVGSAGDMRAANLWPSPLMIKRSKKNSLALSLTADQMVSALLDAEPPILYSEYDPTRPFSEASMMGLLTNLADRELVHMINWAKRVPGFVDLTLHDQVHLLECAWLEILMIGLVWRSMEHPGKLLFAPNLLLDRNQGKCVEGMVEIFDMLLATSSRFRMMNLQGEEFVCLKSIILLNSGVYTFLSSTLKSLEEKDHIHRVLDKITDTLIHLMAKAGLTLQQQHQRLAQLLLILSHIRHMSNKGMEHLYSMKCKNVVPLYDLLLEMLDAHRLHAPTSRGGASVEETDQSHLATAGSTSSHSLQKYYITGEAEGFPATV
# T2 sequence (P98170 whole entry, looked up): as the sequence (P98170 whole entry) above
# T2 sequence (Q13490 whole entry, looked up): as the sequence (Q13490 whole entry) above
Structure (SMILES),Activity [1],Activity [2],Activity [3],Activity [4],Activity [5],Activity [6],Activity [7],Activity [8],Activity [9],Activity [10],Activity [11],Activity [12],Activity [13],Activity [14],Activity [15],Activity [16],Activity [17],Activity [18],Activity [19],Activity [20],other results
CC[C@H](C)[C@@H]1NC(=O)[C@H](NC(=O)[C@@H](N)CCCCNC(=O)COCCOCCNC(=O)COCCOCCNC(=O)[C@@H](NC(=O)[C@@H]2CCCN2C(=O)[C@@H](NC(=O)[C@H](C)NC)C2CCCCC2)C(c2ccccc2)c2ccccc2)CSSC[C@@H](C(=O)N[C@@H](CCCNC(=N)N)C(=O)N[C@@H](CC(C)(C)C)C(=O)N[C@@H](CC(C)C)C(=O)N[C@@H](CCC(N)=O)C(=O)NCC(=O)NCC(=O)NCC(=O)N[C@@H](CCCNC(=N)N)C(=O)N[C@@H](CCCNC(=N)N)C(=O)N[C@@H](CCCNC(=N)N)C(=O)N[C@@H](CCCNC(=N)N)C(=O)N[C@@H](CCCNC(=N)N)C(=O)N[C@@H](CCCNC(=N)N)C(=O)N[C@@H](CCCNC(=N)N)C(N)=O)NC(=O)[C@H](CC(C)C)NC1=O,Dose-dependent effect,Dose-dependent effect,80%,56%,35%,84%,66%,48%,57%,152%,97%,79%,75%,34%,119%,129%,82%,97%,189%,125%,Activity [21]: 90%; Activity [22]: 110%; Activity [23]: 88%; Activity [24]: 119%; Activity [25]: 91%; Activity [26]: 107%
CC[C@H](C)[C@@H]1NC(=O)[C@H](NC(=O)[C@@H](N)CCCCNC(=O)COCCOCCNC(=O)COCCOCCOc2cccc(C(=O)c3csc([C@@H]4CCCN4C(=O)[C@@H](NC(=O)[C@H](C)NC)C4CCCCC4)n3)c2)CSSC[C@@H](C(=O)N[C@@H](CCCNC(=N)N)C(=O)N[C@@H](CC(C)(C)C)C(=O)N[C@@H](CC(C)C)C(=O)N[C@@H](CCC(N)=O)C(=O)NCC(=O)NCC(=O)NCC(=O)N[C@@H](CCCNC(=N)N)C(=O)N[C@@H](CCCNC(=N)N)C(=O)N[C@@H](CCCNC(=N)N)C(=O)N[C@@H](CCCNC(=N)N)C(=O)N[C@@H](CCCNC(=N)N)C(=O)N[C@@H](CCCNC(=N)N)C(=O)N[C@@H](CCCNC(=N)N)C(N)=O)NC(=O)[C@H](CC(C)C)NC1=O,Dose-dependent effect,Dose-dependent effect,81%,63%,36%,84%,68%,46%,59%,137%,99%,81%,76%,35%,111%,128%,80%,100%,165%,103%,Activity [21]: 95%; Activity [22]: 117%; Activity [23]: 94%; Activity [24]: 122%; Activity [25]: 90%; Activity [26]: 110%; Activity [27]: 78%; Activity [28]: 57%; Activity [29]: 59%; Activity [30]: 50%; Activity [31]: 62%; Activity [32]: 55%
